Data published in patent US20260008815A1, “CYCLIC PEPTIDE OR SALT THEREOF, AND USES THEREOF” (FUJIFILM Corporation, priority 2023, published 2026).
Bridge positions count the residues as written; N and C are the ends. Ends that are not written are not given here. COCH2 = acetyl group that carries the bridge

Tests used:
[1] = tested on: BaF3 cells stably expressing FGFR (avian); assay: BaF3 cell proliferation-promoting effect; type: cell-based; conditions: number of viable cells at the addition concentration (0.001 to 10 nmol/L) giving the largest number; 2 nights; negative control about 100 cells/well
Protocol: (§1) The FGFR phosphorylation ability of the cyclic peptide complex was evaluated using the BaF3 cell proliferation-promoting effect in which FGFR was stably expressed.
(§2) BaF3 cells stably expressing FGFR were established by introducing a vector (human: Sino Biologicals, HG10824-UT, bovine: sequence of Accession No. F1MNW2 was introduced into pCDNA3.1/Hygro(+) Mammalian Expression Vector (Thermo, V87020), porcine: sequence of Accession No. A0A4X1SNN3 was introduced into pCDNA3.1/Hygro(+) Mammalian Expression Vector (Thermo, V87020), and avian: sequence of Accession No. A0A8V0XB17 was introduced into pCDNA3.1/Hygro(+) Mammalian Expression Vector (Thermo, V87020)) into which FGFR gene had been incorporated, into BaF3 cells using NucleoFector (Lonza) and performing drug selection of cells into which the FGFR gene had been introduced using hygromycin.
(§3) The evaluation of the proliferation-promoting effect of BaF3 cells in which FGFR is stably expressed was performed by the following method. First, RPMI-1640 with L-Glutamine and Phenol Red (FUJIFILM Wako Pure Chemical Corporation, 189-02025) and Fetal Bovine Serum (Thermo, 10270-106) were mixed at a volume ratio of 9:1, and then heparin (STEM CELL, 07980) was added thereto such that the final concentration thereof was 8 μg/mL, thereby preparing a culture medium for evaluation (hereinafter, described as RPMI (10% FBS) medium). Next, the BaF3 cells in which FGFR had been stably expressed were washed twice with RPMI (10% FBS) culture medium, suspended in RPMI (10% FBS) culture medium in which the cyclic peptide complex had been dissolved to a final concentration of 0.001 to 10 nmol/L, and seeded in a 384-well plate. In this case, a condition in which the cyclic peptide complex was not added as a negative control was prepared. After culturing at 37° C. (5% CO2) for 2 nights, Hoechst 33342, Trihydrochloride, Trihydrate-10 mg/mL Solution in Water (Thermo, H3570), -Cellstain (registered trademark)-Calcein-AM solution (1 mg/mL DMSO solution) (DOJINDO, C396), and -Cellstain (registered trademark)-PI solution (DOJINDO, P378) were each added to RPMI (10% FBS) culture medium in a volume amount of 1/1,000 at the final concentration, and live/dead staining of the cells were performed by allowing to stand at room temperature for 1 hour, and imaging was performed using a confocal microscope (Yokogawa Electric Corporation, CQ1). The number of viable cells was calculated from the imaging data, and the cell proliferation-promoting effect was evaluated according to the following evaluation criteria. The number of viable cells in the negative control was about 100 cells/well. The evaluation result preferably satisfies the evaluation criteria A, B, or C.
(§4) At an addition concentration of the cyclic peptide complex having the largest number of viable cells, evaluation criteria is as follows.

[2] = tested on: BaF3 cells stably expressing FGFR (bovine); assay: BaF3 cell proliferation-promoting effect; type: cell-based; conditions: number of viable cells at the addition concentration (0.001 to 10 nmol/L) giving the largest number; 2 nights; negative control about 100 cells/well
Protocol: as §1, §2, §3, §4

[3] = tested on: BaF3 cells stably expressing FGFR (human); assay: BaF3 cell proliferation-promoting effect; type: cell-based; conditions: number of viable cells at the addition concentration (0.001 to 10 nmol/L) giving the largest number; 2 nights; negative control about 100 cells/well
Protocol: as §1, §2, §3, §4

[4] = tested on: BaF3 cells stably expressing FGFR (porcine); assay: BaF3 cell proliferation-promoting effect; type: cell-based; conditions: number of viable cells at the addition concentration (0.001 to 10 nmol/L) giving the largest number; 2 nights; negative control about 100 cells/well
Protocol: as §1, §2, §3, §4

[5] = Molecular stability after alkali treatment, LC; type: physicochemical; conditions: 0.5 mol/L sodium hydroxide aqueous solution added, room temperature, 3 hours
Protocol: In addition, the stability of the cyclic peptide (SEQ ID NO: 450) containing a cysteine residue in the cyclized portion and the cyclic peptide (SEQ ID NO: 442) containing a homocysteine residue in the cyclized portion was compared under the following alkali treatment, which is a more severe condition.
The alkali treatment was performed by the following method. 25 μL of a 0.2 mg/ml cyclic peptide aqueous solution was prepared, 58.8 μL of a 0.5 mol/L sodium hydroxide aqueous solution was added to the aqueous solution, and the mixture was incubated at room temperature for 3 hours to obtain an aqueous solution of the cyclic peptide alkali-treated. The total area of all the peaks in LC/MS of the cyclic peptide before the alkali treatment was set to 100%, and the proportion of the total area of all the peaks in LC/MS of the aqueous solution of the cyclic peptide alkali-treated was determined to calculate the residual rate of the cyclic peptide.
The LC conditions used for the evaluation of molecular stability are the same as those in the measurement of the above-described cyclic peptide treated with a reducing agent.

Substance	Evaluation result of cell proliferative properties Avian [1]	Evaluation result of cell proliferative properties Bovine [2]	Evaluation result of cell proliferative properties Human [3]	Evaluation result of cell proliferative properties Porcine [4]	residual rate of the cyclic peptide [5] [%]
457 (QCPQNFINPVQWRYFQHYKNKQCPQNFINPVQWRYFQHYKNK; also: cyclic peptide) [compound 457]	A (The number of viable cells is 1,000 cells/well or more.)	A (The number of viable cells is 1,000 cells/well or more.)	A (The number of viable cells is 1,000 cells/well or more.)	A (The number of viable cells is 1,000 cells/well or more.)	
458 (QCPQNFINPVQWRYFQHYKNKQCPQNFINPVQWRYFQHYKNK; also: cyclic peptide) [compound 458]	A (The number of viable cells is 1,000 cells/well or more.)	A (The number of viable cells is 1,000 cells/well or more.)	A (The number of viable cells is 1,000 cells/well or more.)	A (The number of viable cells is 1,000 cells/well or more.)	
459 (QCPQNFINPVQWRYFQHYKNQCPQNFINPVQWRYFQHYKNK; also: cyclic peptide) [compound 459]	B (The number of viable cells is 400 cells/well or more and less than 1,000 cells/well.)	B (The number of viable cells is 400 cells/well or more and less than 1,000 cells/well.)	A (The number of viable cells is 1,000 cells/well or more.)	A (The number of viable cells is 1,000 cells/well or more.)	
460 (YCEENYLDPEQYQYFIYFKYKYCEENYLDPEQYQYFIYFKYK; also: cyclic peptide) [compound 460]	A (The number of viable cells is 1,000 cells/well or more.)	A (The number of viable cells is 1,000 cells/well or more.)	A (The number of viable cells is 1,000 cells/well or more.)	A (The number of viable cells is 1,000 cells/well or more.)	
Y-(C)-EENYLDPEQYQYFIYF-(K(acetyl))-YKKK (YCEENYLDPEQYQYFIYFK(COCH2)YKKK; thioether 2-19) [SEQ ID NO: 450]					36
Y-(Hcy)-EENYLDPEQYQYFIYF-(K(acetyl))-YKKK (YXEENYLDPEQYQYFIYFKYKKK; homocysteine, acetyl-lysine; Description of Artificial Sequence: Cyclic peptide) [SEQ ID NO: 442]					61
